Reference: patent US20030190325A1, “Novel peroxiredoxin defense system from mycobacterium tuberculosis” (priority 2002, published 2003)
pIC50, pKi: −log10 of the molar value. Where two headings read alike, the source gives them in different places.

Key:
[1] = biological target: T1, Lpd, SucB, AhpD (Mycobacterium tuberculosis, UniProt P9WHH9+P9WIS7+P9WQB5); assay: DTNB screening assay (Lpd/SucB/AhpD protein mixture); type: biochemical; details: for Target: which of the 3 enzymes (AhpD, Lpd, SucB) is inhibited, and mode of inhibition
T1 construct: Lpd and SucB ORFs were amplified by PCR from M. tuberculosis H37Rv genomic DNA; The AhpD open reading frame (ORF) was amplified by PCR with engineered 5′ NdeI and 3′ NheI sites and cloned into pET11c; made in house; host or cells: E. coli BL21(DE3), pET11c
T1 sequence (P9WHH9 1-464): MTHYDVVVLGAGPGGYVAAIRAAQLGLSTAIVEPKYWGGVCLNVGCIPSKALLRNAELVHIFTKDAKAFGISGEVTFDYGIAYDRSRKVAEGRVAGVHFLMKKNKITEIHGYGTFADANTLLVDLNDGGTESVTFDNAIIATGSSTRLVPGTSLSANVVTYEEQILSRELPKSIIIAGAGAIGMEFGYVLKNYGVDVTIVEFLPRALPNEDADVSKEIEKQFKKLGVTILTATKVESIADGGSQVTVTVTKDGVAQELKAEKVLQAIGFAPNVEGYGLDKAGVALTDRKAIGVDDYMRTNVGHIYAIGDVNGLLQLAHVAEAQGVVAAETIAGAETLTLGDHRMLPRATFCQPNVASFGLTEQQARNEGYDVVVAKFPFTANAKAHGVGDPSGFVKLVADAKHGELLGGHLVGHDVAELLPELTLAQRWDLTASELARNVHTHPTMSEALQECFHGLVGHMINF
T1 sequence (P9WIS7 1-553): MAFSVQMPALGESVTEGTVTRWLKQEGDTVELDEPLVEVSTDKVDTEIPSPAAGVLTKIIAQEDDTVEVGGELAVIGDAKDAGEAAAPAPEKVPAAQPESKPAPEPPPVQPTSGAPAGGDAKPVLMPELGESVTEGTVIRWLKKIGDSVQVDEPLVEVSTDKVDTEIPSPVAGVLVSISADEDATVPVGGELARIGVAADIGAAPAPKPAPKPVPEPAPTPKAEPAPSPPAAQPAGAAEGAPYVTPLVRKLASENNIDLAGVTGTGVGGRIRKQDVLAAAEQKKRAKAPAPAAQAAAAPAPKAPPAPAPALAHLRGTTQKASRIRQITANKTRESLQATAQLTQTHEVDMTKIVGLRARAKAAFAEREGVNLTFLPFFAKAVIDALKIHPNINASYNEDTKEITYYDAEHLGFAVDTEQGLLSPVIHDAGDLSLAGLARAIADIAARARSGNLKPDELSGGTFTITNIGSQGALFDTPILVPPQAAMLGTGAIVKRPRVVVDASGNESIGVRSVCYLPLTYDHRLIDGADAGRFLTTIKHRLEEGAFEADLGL
T1 sequence (P9WQB5 1-177): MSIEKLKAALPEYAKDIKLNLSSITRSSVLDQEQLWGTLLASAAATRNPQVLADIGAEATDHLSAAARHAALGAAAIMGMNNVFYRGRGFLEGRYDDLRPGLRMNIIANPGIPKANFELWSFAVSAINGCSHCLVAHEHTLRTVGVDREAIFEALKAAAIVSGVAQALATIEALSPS
Description: The screen was performed in Falcon Microtest 384-well 30 μl assay plates using the DTNB (5,5′-dithiobis-(2-nitrobenzoic acid)) assay.
The protein mixture (200 nM Lpd, 350 nM SucB, 36 nM AhpD) was dispensed into each well in 10 μl using a multi-channel pump dispenser. Compounds were added to the protein mix by a single dip (1 nl) with a pin-transfer robot. Plates with the protein mix and added compounds were incubated on a shaker for 30 min at room temperature. The concentration of compounds during incubation was 50 μM. Reaction mixture (200 μM NADH, 150 μM DTNB in 100 mM potassium phosphate, pH 7.0, 2 mM EDTA) was added to each well in 10 μl after pre-incubation and the plate was read at 405 nm for “time 0 min” values. Plates were incubated on a shaker for 30 min at room temperature to complete the reaction and were read at 405 nm for “time 30 min.” “Time 0 min” values were subtracted from “time 30 min” values and were taken as an end-point value for the assay. Control wells contained only protein and reaction mixtures without any compounds added and were taken as 100% activity values. The final concentrations of all components during the reaction were as follows: Lpd, 100 nM; SucB, 175 nM; AhpD, 18 nM; NADH, 100 μM; DTNB, 75 μM; potassium phosphate, 50 mM; EDTA, 1 mM; compounds, 25 μM.

[2] = biological target: T2, AhpD (Mycobacterium tuberculosis, UniProt P9WQB5); assay: Inhibition constant for the enzyme identified as target: AhpD; type: biochemical
T2 construct: The AhpD open reading frame (ORF) was amplified by PCR with engineered 5′ NdeI and 3′ NheI sites and cloned into pET11c; made in house; host or cells: E. coli BL21(DE3), pET11c
T2 sequence (P9WQB5 1-177): T1 sequence (P9WQB5 1-177)

SMILES	pIC50 [1]	Target [1]	pIC50 ([1]; DTNB assay, 100 nM Lpd, 175 nM SucB, 18 nM AhpD, 100 μM NADH, 75 μM DTNB, pH 7.0, read-out: IC50)	pKi [2]
O=C(O)CCN1C(=O)/C(=C\c2ccc(-c3cccc(C(F)(F)F)c3)o2)SC1=S [2556-0286]	5.36	SucB (Com- pet Inhib.)		
O=C(O)c1ccc(N2C(=O)/C(=C/c3ccc(-c4ccc(Br)cc4)o3)C=C2c2ccccc2)cc1 [2150-0146]			5.38	
Cc1cc(C)cc(/N=C2/NC(=O)/C(=C\c3cc(Br)c(O)c([N+](=O)O)c3)S2)c1 [2368-0687]	4.98	AhpD (Com- pet Inhib.)		5.30
O=C(O)CN1C(=O)/C(=C\c2ccc(-c3cccc(Cl)c3Cl)o2)SC1=S [3229-2113]	5.09	SucB (Com- pet Inhib.)		
